Assays:
Campylobacter jejuni = assay: Cohort of breastfed mother-infant pairs: milk oligosaccharide vs C. jejuni-associated diarrhea; format: in vivo, human; conditions: for Association of rates of C. jejuni diarrhea during breastfeeding with oligosaccharide as a percent of milk oligosaccharide: breastfed infants, 2′-FL P=0.004, LDFH-I P=0.047 (not persisting after controlling for 2′-FL)
Source text: (§1) A cohort of 316 mother-infant pairs was enrolled and monitored from birth to two years postpartum in San Pedro Martir, a transitional neighborhood of Mexico City. Enrollment was restricted to term, normal birthweight infants. This research was approved by institutional review boards in Mexico and Cincinnati. Written informed consent was obtained from mothers who participated. Infant illness and feeding history were collected by trained field workers who made weekly home visits. Milk samples were collected from mothers weekly in the first month, and monthly thereafter. Samples were collected in the morning by an experienced study nurse using an Egnell electric breast pump to obtain the complete content of one breast. Samples were transported on ice from the study household to the laboratory, where they were stored at −70° C. Infant stool samples were collected weekly with additional samples obtained whenever diarrhea occurred. Diarrhea samples were routinely tested for Campylobacter jejuni, diarrheagenic E. coli, Shigella, Salmonella, Aeromonas, and rotavirus, as detailed in previous publications (129, 136-138). […] Diarrhea episodes were defined throughout the study as three or more watery stools within a 24-hour period or loose-to-watery bowel movements that exceeded the child's usual daily stool frequency by two or more stools as determined by a study physician. […] Classification of disease severity was based on the standardized history of each diarrhea episode recorded by a study physician, and was blind to and independent of milk oligosaccharide analysis. Diarrhea was attributed to campylobacter or calicivirus if the pathogen was detected in a stool sample collected during or within seven days of an episode of diarrhea. […]
Milk samples were transported to Boston and analyzed as described previously(143). Milk oligosaccharides were isolated, perbenzoylated, and resolved by reversed-phase HPLC (C-8) with an acetonitrile/water gradient and detected at 229 nm. […]

Campylobacter = assay: Ex vivo inhibition of Campylobacter colonization of human intestinal mucosa; conditions: FIG. 9B
Procedure: FIGS. 9A and 9B are a pair of graphs depicting the results of an study showing inhibition of Campylobacter colonization in BALB/c mice fed with 2 mg of milk fucosylated oligosaccharides given during challenge with 10^4 and 10^8 CFU of bacteria (left). Ex vivo assays of inhibition of human gut colonization of Campylobacter with 2′-fucosyllactose (2′-FL) and milk fucosylated oligosaccharides (OS).

[1] = tested on: campylobacter adherence to intestinal epithelial cells; conditions: early studies (ref. 80); cited from earlier work
V. cholerae = conditions: previous studies (ref. 86); cited from earlier work
calicivirus = assay: Cohort of breastfed mother-infant pairs: milk oligosaccharide vs calicivirus-associated diarrhea; format: in vivo, human
Source text: as §1, with “thereafter.” for “thereafter. Samples were collected in the morning by an experienced study nurse using an Egnell electric breast pump to obtain the complete content of one breast. Samples were transported on ice from the study household to the laboratory, where they were stored at −70° C. Infant stool samples were collected weekly with additional samples obtained whenever diarrhea occurred. Diarrhea samples were routinely tested for Campylobacter jejuni, diarrheagenic E. coli, Shigella, Salmonella, Aeromonas, and rotavirus, as detailed in previous publications (129, 136-138).”
Milk samples were transported to Boston and analyzed as described previously(143). […]

[2] = tested on: Campylobacter binding to FUT1-CHO cells; assay: Inhibition of Campylobacter binding to FUT1-transfected CHO cells; format: cell-based, Campylobacter jejuni; conditions: FIG. 7
Source text: α1,2-fucosyltransferase-transfected CHO cells (CHO-FUT1), α1,3/4-fucosyltransferase-transfected CHO cells (CHO-FUT3), and α1,3-fucosyltransferase-transfected CHO cells (CHO-FUT4), and parental CHO cells transfected with the vector pCDM7 lacking the α1,2 FUT gene (CHO-WT) can be used to test bacterial binding and bacterial/host cell agglutination. Parental CHO cells with the vectors are used as controls.
The binding of bacteria to CHO cells transfected with the human gene for α1,2-fucosyltransferase (FUT1), can be assessed by bacterial-cell association assay. […]
Ligands, such as α1,2-fucosyl ligands and homologs are tested for their ability to inhibit binding of campylobacter and V. cholerae strains to CHO-FUT1 cells. For molecules that is bind to H-2 ligands, including anti-H-2 monoclonal antibodies (anti-H-2 MAbs) and the lectins Ulex europaeus (UEA I) and Lotus tetragonolobus (Lotus), inhibition is measured on monolayers of CHO-FUT1 cells incubated in 8-well chamber slides for 1 h with each of the α1,2-fucosyl ligands before adding 100 μL of the bacterial suspension containing 1×10^8 bacteria/mL. […] In both assays, after a 3 h incubation at 37° C., wells are rinsed, lysed with 1% Triton X100, and CFU (colony forming units) of bacteria per well are determined. […]

2-Fucosyllactose [2′-FL]
Association of rates of C. jejuni diarrhea during breastfeeding with oligosaccharide as a percent of milk oligosaccharide (Campylobacter jejuni): inversely associated | Campylobacter incidence in the intermediate and high groups compared to the low group (Campylobacter jejuni; tertiles (n=31) of 2′-FL as percent of milk oligosaccharide: low <0.29, intermediate 0.29-0.36, high >0.37, FIG. 6A): significantly (P<0.01) less | Inhibition of C. jejuni binding/colonization in human intestinal mucosa ex vivo (Campylobacter): inhibits

C[C@H](O)[C@@H](O)[C@@H](O)[C@H](O)C=O [L-fucose]
Inhibition of campylobacter adherence to intestinal epithelial cells [1]: inhibition | Inhibition of hemagglutination produced by V. cholerae with human O erythrocytes (V. cholerae): inhibited

Lacto-N-difucohexaose I [LDFH-I]
Association of rates of C. jejuni diarrhea during breastfeeding with oligosaccharide as a percent of milk oligosaccharide (Campylobacter jejuni): directly associated | Association of calicivirus diarrhea during breastfeeding with oligosaccharide as a percent of milk oligosaccharide (calicivirus; breastfed infants, P=0.012, dose-dependent): inverse association | Calicivirus incidence in the high group compared to the low group (calicivirus; tertiles (n=31) of LDFH-I as percent of milk oligosaccharide: low <0.07, intermediate 0.07-0.11, high >0.12, FIG. 6B): significantly (P=0.02) less

B1: Ulex europaeus lectin: lectin that binds to H-2 ligands (protein, UniProt P22972 1-243, looked up)
Anti-H(O) lectin 1: SDDLSFKFKNFSQNGKDLSFQGDASVIETGVLQLNKVGNNLPDETGGIARYIAPIHIWNCNTGEVASFITSFSFFMETSANPKAATDGLTFFLAPPDSPLRRAGGYFGLFEDTKDNDSSYQTVAVEFDTIGSPVNFDDPGFPHIGIDVNRVKSINAERWNKRYGLNNVANVEIIYEASSKTLTASLTYPSDQTSISVTSIVDLKEILPEWVSVGFSGGTYIGRQATHEVLNWYFTSNLINTNS
Inhibition of bacterial binding to α1,2-fucosyltransferase (FUT1)-transfected CHO cells [2]: specifically inhibited
